Data published in patent US5532223A, “Use of aqueous soluble glucan preparations to stimulate platelet production” (priority 1995, dated 1996).
Like-named read-outs stand apart in the source and are kept apart here.

Assays:
Human Monocytes = assay: TNF-α synthesis by human monocyte monolayers stimulated with glucan preparations (ELISA); type: cell-based; conditions: for TNF-α / TNF-α Mean ± SD: glucan 1 mg/ml; for TNF-α Mean ± SD: Table 3; for TNF-α stimulation (in words): human monocytes, Tables 3 and 4
Text: Human peripheral blood mononuclear cells were isolated (Janusz et al., (1987), J. Immunol., 138: 3897-3901) from normal citrated and dextran-treated blood, washed in Hank's balanced salts solution (HBSS), lacking calcium, magnesium, and phenol red, and purified by gradient centrifugation on cushions of Ficoll-Paque (Pharmacia Fine Chemicals, Piscataway, N.J.). The mononuclear cells were collected into HBSS, washed twice, resuspended in RPMI 1640 Medium (Gibco, Grand Island, N.Y.) containing 1% heat-inactivated autologous serum (56° C. for 30 min.), and counted on the Coulter counter.
For the preparation of monocyte monolayers, 1 ml of 2.2×10^6 mononuclear cells/ml was plated into wells of 24-well tissue culture plates (CoStar, Cambridge, Mass.), incubated for 1 h at 37° C. in a humidified atmosphere of 5% CO2, and washed three times with RPMI to remove nonadherent cells. A second 1 ml aliquot of 2.2×10^6 mononuclear cells/ml was layered into each well and incubated for 2 hours as described above before removal of the nonadherent cells. By visual enumeration at 40× with an inverted phase microscope and a calibrated reticule, the number of adherent cells for 30 different donors was 0.77±0.20×10^6 per well (mean±SD). By morphology and nonspecific esterase staining, >95% of the adherent cells were monocytes.
Monocyte monolayers were incubated at 37° C. in the CO2 chamber for 0 to 8 h with 0.5 ml of RPMI, 1% heat-inactivated autologous serum, 10 mM HEPES, and 5 mM MgCl2 in the absence and presence of various glucan preparations. The culture supernatant was removed, clarified by centrifugation at 14,000 g for 5 min at 4° C., and stored at -70° C. before assay of cytokines.
The data are expressed as pg per 10^6 monocytes, which was calculated by dividing the quantity of cytokine in 0.5 ml of supernatant by the number of monocytes per well.

platelets = assay: Platelet count in irradiated mice; type: in vivo, mouse; conditions: single IV bolus 20 hours prior to 7.5-Gy total-body irradiation, fourteen days after irradiation, FIG. 7
Procedure: The platelet proliferation stimulatory effect of the neutral soluble glucan was tested in an animal model system following irradiation or administration of the chemotherapeutic agent cisplatin.
More specifically, neutral soluble glucan prepared as described in Example 1 was administered to groups of 10 mice in a single IV bolus 20 hours prior to radiation exposure. Mice were bilaterally exposed to a total-body irradiation of 7.5-Gy. Fourteen days after irradiation the mice were sacrificed and whole blood samples were analyzed for peripheral blood counts.

[1] = test system: Human Peripheral Blood Mononuclear Cells (TNFα); assay: In vitro TNFα synthesis by human peripheral blood mononuclear cells (radioimmunoassay), stimulation and priming; type: cell-based; conditions: for TNFα: 24 hours, mean of two donors
Procedure: (§1) Venous blood was obtained from healthy male volunteers and mononuclear cells were fractionated by Ficoll-Hypaque centrifugation. The mononuclear cells were washed, resuspended in endotoxin-free RPMI-1640 culture medium ultrafiltered to remove endotoxins as described elsewhere (Dinarello et al., 1987, J. Clin. Microbiol. 25:1233-8) at a concentration of 5×10^6 cells/ml and were aliquoted into 96-well microtiter plates (Endres et al., 1989, N. E. J. Med. 320:265-271). The cells were then incubated with either 1 ng/ml endotoxin (lipopoly-saccharide, E. coli 055:B5, Sigma, St. Louis), or 10 to 1000 ng/ml PGG, at 37° C. for 24 hours in 5% CO2 and then lysed by three freeze-thaw cycles (Endres et al., 1989, N. E. J. Med. 320:265-271). Synthesis of IL-1β and TNFα were determined by specific radioimmunoassays as described elsewhere (Lisi et al., 1987, Lymph Res. 6:229-244; Lonnemann et al., 1988, Lymph. Res. 7:75-84; Van der Meer et al., 1988, J. Leukocycte Biol. 43:216-223.
(§2) To determine if neutral soluble glucan could act as a priming agent for cytokine synthesis with endotoxin, a known cytokine stimulant, mononuclear cells were pre-incubated with 1, 10, and 1000 ng/ml underivatized, aqueous soluble β-glucan for 3 hours at 37° C. in 5% CO2. The cells were washed to remove neutral soluble glucan and were then incubated with 1 ng/ml endotoxin as described above. IL-1β and TNFα were determined as described above.

[2] = test system: monocytes and neutrophils (killing activity); assay: Ex vivo microbicidal activity of normal volunteers; type: in vivo, human; conditions: 2.5 mg/kg, normalized with respect to the saline control, N 6
[3] = test system: polymicrobic infectious challenge (cecal inoculum); assay: Rat model for intra-abdominal sepsis; type: in vivo; conditions: rats
[4] = test system: IL-1, TNF, IL-6, IL-8 and GM-CSF; assay: Clinical trial in healthy males: serum cytokines; type: in vivo, human
Procedure: (§3) A randomized, double-blind, placebo-controlled clinical trial was conducted on healthy males to evaluate the safety of neutral soluble glucan (2.25 mg/kg) injected by intravenous infusion compared to a placebo control. […] The results are consistent with the in vitro data reported in the earlier examples.

[5] = water
neutrophils = assay: Clinical trial in healthy males: absolute neutrophil counts; type: in vivo, human; conditions: 2.5 mg/kg, N 6
[6] = test system: Human Peripheral Blood Mononuclear Cells (IL-1β); assay: In vitro IL-1β synthesis by human peripheral blood mononuclear cells (radioimmunoassay), stimulation and priming; type: cell-based; conditions: for IL-1β: 24 hours, mean of two donors
Procedure: as §1, §2

[7] = human, in vivo, iv
Procedure: as §3

monocytes = assay: Clinical trial in healthy males: monocyte counts; type: in vivo, human; conditions: 2.5 mg/kg, N 6
Staphylococcus aureus = assay: Wound healing, full thickness wound infected with Staphylococcus aureus in hairless mice; type: in vivo, mouse; conditions: wound treated with 10^7 Staphylococcus aureus; topical
Procedure: Wound healing studies were performed on hairless mouse models having full thickness wounds with and without Staphylococcus aureus infection. […] Incisions were closed using steel clips at 1 cm intervals. Formulations of neutral soluble glucan in phosphate buffered saline were applied 30 minutes following wounding and reapplied at 24 hour intervals during the seven day post-operative period. Two micrograms of neutral soluble glucan/mouse per day was topically applied. Wounds were examined daily and rank-ordered for effectiveness of formulation for enhancement of visual based wound healing each day. Wounds were scored for closure on a scale of 0-5, with 5 indicating the most healing. In one group of mice that served as the infection model, the wound was treated with a culture of 10^7 Staphylococcus aureus 30 minutes after wounding and 2 hrs prior to treatment with the neutral soluble glucan formulation.

[8] = test system: β-glucan receptor on human monocytes; assay: Avidity for the glucan receptor: inhibition of monocyte ingestion of zymosan particles; type: cell-based; conditions: for % Inhibition of monocyte ingestion: mean of two experiments
Procedure: Monolayers of human monocytes, prepared on siliconized glass coverslips (Czop et al., 1978, J. […] The monocyte monolayers were then washed twice with 50 ml of RPMI 1640 medium and were layered with 0.25 ml of 4.8×10^6 /ml zymosan particles (Czop and Austen, 1985, J. Immunol., 134:2588-2593). After a 30 minute incubation at 37° C., the monolayers were washed three times with 50 ml of Hank's balanced salt solution to remove noningested zymosan particles. The monolayer were then fixed and stained with Giemsa. The ingestion of zymosan particles by at least 300 monocytes per monolayer was determined by visual observation under a 1000× light microscope.
The percent inhibition of monocyte ingestion was determined by subtracting the percentage of monocytes ingesting targets after pretreatment with the neutral soluble glucan from the percentage ingesting targets after pretreatment with buffer, dividing this number by the percentage ingesting targets after pretreatment with buffer and multiplying by 100.

full thickness wounds = assay: Wound healing, full thickness wound in hairless mice; type: in vivo, mouse
Procedure: Wound healing studies were performed on hairless mouse models having full thickness wounds with and without Staphylococcus aureus infection.
Incisions were closed using steel clips at 1 cm intervals.
[…] Two micrograms of neutral soluble glucan/mouse per day was topically applied. Wounds were examined daily and rank-ordered for effectiveness of formulation for enhancement of visual based wound healing each day. Wounds were scored for closure on a scale of 0-5, with 5 indicating the most healing. In one group of mice that served as the infection model, the wound was treated with a culture of 10^7 Staphylococcus aureus 30 minutes after wounding and 2 hrs prior to treatment with the neutral soluble glucan formulation.
Histological evaluation of the wound site of each test group was made. The dermis of the control group (untreated wound) was heavily infiltrated with both lymphocytes and monocytes/macrophages. However, re-epithelialization that occurred at the epidermal layer was incomplete.

[9] = pre-incubation 10-1000 ng/ml, then endotoxin as co-stimulant
[10] = mice treated topically for three days, in phosphate buffered saline

## Laminarin [reference compound]
Human Monocytes; Table 3, column 1
  TNF-α: 372 pg/10^6 monocytes
Human Monocytes; Table 3, column 2
  TNF-α: 324 pg/10^6 monocytes
Human Monocytes; Table 3, column 3
  TNF-α: 227 pg/10^6 monocytes
Human Monocytes
  TNF-α Mean ± SD: 308 ± 74 pg/10^6 monocytes
  TNF-α stimulation (in words): stimulated
Human Monocytes; Table 4
  TNF-α: 1312 pg/10^6 monocytes

## poly-(1-6)-β-D-glucopyranosyl-(1-3)-β-D-glucopyranose [Neutral soluble glucan]
platelets
  platelet cell count relative to saline treated control levels: ~3 fold
[1]; [9]
  priming of TNFα synthesis compared to endotoxin alone (in words): did not result in any amplification
[1]; stimulant 10 ng/ml
  TNFα: 0.16 ng/mL
[1]; stimulant 100 ng/ml
  TNFα: 0.16 ng/mL
[1]; stimulant 1000 ng/ml
  TNFα: 0.14 ng/mL
[1]; used alone as stimulant
  TNFα synthesis over control buffer treated cells (in words): did not induce increased levels
[2]; Day 2
  Mean Change in % Killing: 48.96%
[2]; Day 3
  Mean Change in % Killing: 39.22%
[2]; Day 6
  Mean Change in % Killing: 31.17%
[2]; Hour 3
  Mean Change in % Killing: 42.86%
[2]; Hour 6
  Mean Change in % Killing: 32.33%
[2]; Hour 24
  Mean Change in % Killing: 20.90%
[3]
  protection from lethal bacterial challenge (in words): protects rats from lethal bacterial challenge
[3]; 100 μg/0.2 ml intramuscularly 24 hours and 4 hours prior to challenge, P vs. Saline <0.01
  Mortality (dead/total): 2/10
[4]; 2.25 mg/kg intravenous infusion
  elevation in IL-1, TNF, IL-6, IL-8 and GM-CSF: no observed elevation
[4]; over time, FIGS. 5 and 6
  changes in serum IL-1 and TNF: no changes occurred
[5]
  aqueous solubility: approximately 100 mg/ml
[5]; pH 13
  aqueous solubility: ~150 mg/mL
Human Monocytes; Table 3, column 1
  TNF-α: 44 pg/10^6 monocytes
Human Monocytes; Table 3, column 2
  TNF-α: 51 pg/10^6 monocytes
Human Monocytes; Table 3, column 3
  TNF-α: 33 pg/10^6 monocytes
Human Monocytes
  TNF-α Mean ± SD: 43 ± 9 pg/10^6 monocytes
  TNF-α stimulation (in words): no stimulation of TNF-α
Human Monocytes; Table 4
  TNF-α: 16 pg/10^6 monocytes
neutrophils; B = Baseline measurement
  Absolute Neutrophil Counts, Mean: 4.11 × 1000/μl
neutrophils; Hour 8
  Absolute Neutrophil Counts, Mean: 11.29 × 1000/μl
neutrophils; Hour 12
  Absolute Neutrophil Counts, Mean: 8.18 × 1000/μl
neutrophils; Hour 24
  Absolute Neutrophil Counts, Mean: 5.32 × 1000/μl
[6]; [9]
  priming of IL-1β synthesis compared to endotoxin alone (in words): did not result in any amplification
[6]; stimulant 10 ng/ml
  IL-1β: 0.13 ng/mL
[6]; stimulant 100 ng/ml
  IL-1β: 0.12 ng/mL
[6]; stimulant 1000 ng/ml
  IL-1β: < 0.10 ng/mL
[6]; used alone as stimulant
  IL-1β synthesis over control buffer treated cells (in words): did not induce increased levels
[7]
  fever or inflammatory reactions: none of the patients experienced fever or inflammatory reactions
[7]; 2.25 mg/kg
  adverse effects: No adverse effects were observed
monocytes; B = Baseline measurement
  Monocyte Counts, Mean: 0.24 × 1000/μl
monocytes; Hour 8
  Monocyte Counts, Mean: 0.63 × 1000/μl
monocytes; Hour 12
  Monocyte Counts, Mean: 0.67 × 1000/μl
monocytes; Hour 24
  Monocyte Counts, Mean: 0.31 × 1000/μl
Staphylococcus aureus
  infection of the wound (in words): effectively eliminated infection
  progression to sepsis (in words): prevented the progression to sepsis
[8]; 50 μg/ml and 500 μg/ml
  receptor binding capacity (in words): higher receptor binding capacity than Peak B
[8]; 50 μg/ml
  % Inhibition of monocyte ingestion: 74%
[8]; 500 μg/ml
  % Inhibition of monocyte ingestion: 86%
Full thickness wounds; [10]
  histology of wounded tissue: cell infiltration: heavy infiltration of macrophages and lymphocytes
  histology of wounded tissue: tissue integrity: Tissue integrity was good
Full thickness wounds; topically applied, two micrograms/mouse per day
  wound healing (in words): accelerated wound healing within the dermal layer of the wound
